Laboratory results from patent US20230158071A1, “TUMOR COMBINED IMMUNOTHERAPY” (CRAGE medical Co., Limited, priority 2018, published 2023).

Experiments:
Assay type in all cases: cell-based, mouse
E0771-EGFRvIII cells = test: LDH cytotoxicity assay, CAR-T killing of olaparib-treated E0771-EGFRvIII cells
Procedure: The experimental groups for incubating with cells that are positive for the antigen target comprises the following 4 groups: UTD group, 806-mCD28z-CAR-T group (or denoted as 806-28Z), olaparib pretreatment group, and olaparib combined treatment group;
the olaparib pretreatment group comprises: UTD+1 μM olaparib pretreatment group (or denoted as UTD+Olaparib 1 μM pretreatment), UTD+5 μM olaparib pretreatment group (or denoted as UTD+Olaparib 5 μM pretreatment), 806-mCD28z-CAR-T+1 μM olaparib pretreatment group (or denoted as 806-28Z+Olaparib 1 μM pretreatment). 806-mCD28z-CAR-T+5 μM olaparib pretreatment group (or denoted as 806-28Z+Olaparib 5 μM pretreatment); […]
Olaparib pretreatment group: different concentrations of olaparib (1 μM, 5 μM) are added to the medium for culturing E0771-EGFRVIII or 4T1-EGFRvIII tumor cells respectively, culturing at 37° C. for 24 h, and then the cells are treated with trypsin and resuspended in fresh medium. The untreated mouse T cells and 806-mCD28z-CAR T cells in Example 1 are respectively taken to incubate with E0771-EGFRvIII or 4T1-EGFRVIII cells pretreated with different concentrations of olaparib at a ratio of 1:3, 1:1, and 3:1; 16 hours later, the secretion of LDH in the supernatant is detected by Cytox 96 Non-Radioactive Cytotoxicity Assay, then calculating the killing toxicity of 806-mCD28z CAR T cells to tumor cells pretreated with different concentrations of olaparib. […] Cytox 96 Non-Radioactive Cytotoxicity Assay (Promaga, REF: G1782); at the same time, the secretions of cytokines Granzyme B, IFN-γ, and IL-2 in the supernatant are detected by ELISA kit (Lianke Biotech Co. Ltd. CAT: 18^.22), for specific experimental procedures, referring to instructions of MouseGranzyme B, IFN-γ, IL-2 ELISA kit from Lianke Biotech Co, Ltd. […]

[1] = system: cytokines Granzyme B, IFN-γ, and IL-2; test: ELISA of cytokines in supernatant of co-cultured E0771-EGFRvIII cells and CAR-T cells; settings: E0771-EGFRvIII co-culture
Procedure: Olaparib pretreatment group: different concentrations of olaparib (1 μM, 5 μM) are added to the medium for culturing E0771-EGFRVIII or 4T1-EGFRvIII tumor cells respectively, culturing at 37° C. for 24 h, and then the cells are treated with trypsin and resuspended in fresh medium. The untreated mouse T cells and 806-mCD28z-CAR T cells in Example 1 are respectively taken to incubate with E0771-EGFRvIII or 4T1-EGFRVIII cells pretreated with different concentrations of olaparib at a ratio of 1:3, 1:1, and 3:1; 16 hours later, the secretion of LDH in the supernatant is detected by Cytox 96 Non-Radioactive Cytotoxicity Assay, then calculating the killing toxicity of 806-mCD28z CAR T cells to tumor cells pretreated with different concentrations of olaparib. For specific detection steps and calculation methods, see the instructions of Promaga. Cytox 96 Non-Radioactive Cytotoxicity Assay (Promaga, REF: G1782); at the same time, the secretions of cytokines Granzyme B, IFN-γ, and IL-2 in the supernatant are detected by ELISA kit (Lianke Biotech Co. Ltd. CAT: 18^.22), for specific experimental procedures, referring to instructions of MouseGranzyme B, IFN-γ, IL-2 ELISA kit from Lianke Biotech Co, Ltd.
Olaparib combined treatment group: different concentrations of olaparib (1 μM, 5 μM) are added to the medium for culturing E0771-EGFRVIII or 4T1-EGFRvIII tumor cells respectively, culturing at 37° C. for 24 h, and then the cells are treated with trypsin and resuspended in fresh medium. The untreated mouse T cells and 806-mCD28z-CAR T cells in Example 1 are respectively taken to incubate with E0771-EGFRvIII or 4T1-EGFRvIII cells treated with different concentrations of olaparib at a ratio of 1:3, 1:1, and 3:1; after corresponding concentrations of olaparib (1 μM, 5 μM) are added to treat the cells continuously for 16 hours, the secretion of LDH in the supernatant is detected by Cytox 96 Non-Radioactive Cytotoxicity Assay, then calculating the killing toxicity of 806-mCD28z CAR T cells to tumor cells pretreated with different concentrations of olaparib. […]

[2] = system: exhaustion-related proteins PD1, LAG3 and TIM3 on the surface of CAR-T cells; test: Flow cytometry of exhaustion-related proteins on CAR-T cells in co-culture
Procedure: The experimental groups are as follows: 806-mCD28z-CAR-T group (or denoted as 806-28Z), olaparib pretreatment group, and olaparib combined treatment group;
The olaparib pretreatment group comprises: 806-mCD28z-CAR-T+1 μM olaparib pretreatment group (or denoted as 806-28Z+Olaparib 1 μM pretreatment), 806-mCD28z-CAR-T+5 μM olaparib pretreatment group (or denoted as 806-28Z+Olaparib 5 μM pretreatment);
Olaparib combined treatment group comprises: 806-mCD28z-CAR-T+1 μM olaparib combined treatment group (or denoted as 806-28Z+Olaparib 1 μM), 806-mCD28z-CAR-T+5 μM olaparib combined treatment group (or denoted as 806-28Z+Olaparib 5 μM).
(§1) Olaparib pretreatment group: different concentrations of olaparib (1 μM, 5 μM) are respectively added to a medium for culturing E0771-EGFRvIII or 4T1-EGFRvIII tumor cells, after culturing at 37° C. for 24 hours, the cells are treated with trypsin and resuspended in fresh medium. 806-mCD28z-CAR T cells in Example 1 are taken to co-incubate with E0771-EGFRVIII or 4T1-EGFRvIII cells pretreated with different concentrations of olaparib at a ratio of 1:1; 16 hours later, the proliferation of CAR-T cells and the expression levels of the T cell exhaustion-related proteins PD1, LAG3 and TIM3 on the surface of CAR-T cells are detected by flow cytometry.
as §1, with “combined treatment” for “pretreatment”, “E0771-EGFRvIII” for “E0771-EGFRVIII”, “1:1; after corresponding concentrations of olaparib (1 μM, 5 μM) are respectively added to the medium for” for “1:1;”, “hours,” for “hours later,”, “LAG-3” for “LAG3”

[3] = olaparib pretreatment and combined treatment groups vs CAR-T single treatment group
[4] = olaparib combined treatment group

For `O=C(c1cc(Cc2n[nH]c(=O)c3ccccc23)ccc1F)N1CCN(C(=O)C2CC2)CC1` [olaparib], the “lethal effect on E0771-EGFRvIII cells compared with the CAR-T single treatment group” value (E0771-EGFRvIII cells; 5 μM olaparib combined treatment group) was “higher synergistic lethal effect”, the “promotion of the killing effect of CAR-T cells on E0771-EGFRvIII cells” value (E0771-EGFRvIII cells; 5 μM olaparib pretreatment group, better than 5 μM combined treatment group) was “most significant” and the “killing effect of CAR-T cells on E0771-EGFRvIII cells” value (E0771-EGFRvIII cells; olaparib 1 μM or 5 μM, pretreatment or combined treatment, vs CAR-T alone, ratio 1:3, 1:1, 3:1, 16 hours, LDH) was “significantly improved”. The “level of Granzyme B in the supernatant” value [1, 3] was “do not increase significantly”, the “level of IL-2 in the supernatant” value [1, 3] was “do not increase significantly” and the “level of IFN-γ in the supernatant” value ([1]; olaparib pretreatment group and olaparib combined treatment group vs CAR-T single treatment group) was “significantly increased”. For the same molecule, the “expression level of LAG3 on the surface of CAR-T cells” value [2, 4] was “do not change significantly”, the “expression level of PD1 on the surface of CAR-T cells” value [2, 4] was “do not change significantly” and the “expression level of TIM3 on the surface of CAR-T cells” value [2, 4] was “do not change significantly”. The “expression level of LAG3 on the surface of CAR-T cells” value ([2]; olaparib pretreatment group) was “do not change significantly”, the “expression level of PD1 on the surface of CAR-T cells” value ([2]; olaparib pretreatment group) was “do not change significantly” and the “expression level of TIM3 on the surface of CAR-T cells” value ([2]; olaparib pretreatment group) was “do not change significantly”.
